In ChEMBL document CHEMBL4428058, “Hit-to-Lead Studies for the Antimalarial Tetrahydroisoquinolone Carboxanilides” (J Med Chem, 2016) one finds t1/2, Drug metabolism and half-life data, which are given here for eight molecules.

Type in all cases: ADME, Microsome
Data set [1] is described as follows: Half life in CD-1 mouse liver microsomes in presence of NADPH by UPLC-MS analysis. Conditions: for t1/2: mouse, microsomes. A general note: Liver microsomes are a subcellular fraction often used to study metabolism.
The nature of data set [2]: Drug metabolism in CD-1 mouse liver microsomes assessed as ((3S,4S)-N-(3-hydroxyphenyl)-2-isobutyl-1-oxo-3-(thiophen-2-yl)-1,2,3,4-tetrahydroisoquinoline-4-carboxamide formation.
Data set [3] is described as follows: Drug metabolism in CD-1 mouse liver microsomes assessed as oxidation at N-2 isobutyl group.
Data set [4] is described as follows: Drug metabolism in CD-1 mouse liver microsomes assessed as (3S,4S)-N-(3-chloro-4-hydroxyphenyl)-2-isobutyl-1-oxo-3-(thiophen-2-yl)-1,2,3,4-tetrahydroisoquinoline-4-carboxamide formation.
Data set [5] in a line: Drug level in CD-1 mouse liver microsomes treated with (3S,4S)-N-(3-cyanophenyl)-2-isobutyl-1-oxo-3-(thiophen-2-yl)-1,2,3,4-tetrahydroisoquinoline-4-carboxamide.
Data set [6] is described as follows: Drug level in CD-1 mouse liver microsomes treated with (3S,4S)-N-(3-chloro-4-methoxyphenyl)-2-isobutyl-1-oxo-3-(thiophen-2-yl)-1,2,3,4-tetrahydroisoquinoline-4-carboxamide.

Regarding `N#Cc1cc(NC(=O)[C@H]2c3ccccc3C(=O)N(CC(F)(F)F)[C@@H]2c2cccnc2)ccc1F` (relative stereo) [SJ-733], in data set [1], the t1/2 was determined as 1.63 h.

For the molecule `CC(C)CN1C(=O)c2ccccc2[C@H](C(=O)Nc2ccc(F)c(C#N)c2)[C@H]1c1cn[nH]c1` (racemic), in data set [1], the t1/2 was 0.33 h.

As to `CC(C)CN1C(=O)c2ccccc2[C@H](C(=O)Nc2cccc(C#N)c2)[C@H]1c1cccs1` (racemic), the Drug metabolism result in data set [2] and in data set [3] was “Metabolite_Detected” throughout. The t1/2 in data set [1] was 0.28 h.

The term half-life denotes the time needed for the level to fall by half in the phase considered. Regarding `COc1ccc(NC(=O)[C@H]2c3ccccc3C(=O)N(CC(C)C)[C@@H]2c2cccs2)cc1Cl` (racemic), the Drug metabolism result in data set [3] and in data set [4] was “Metabolite_Detected” throughout. Also, in data set [1] (CD-1, mouse, liver microsomes), the half-life is less than 30 min.

On to `N#Cc1cc(NC(=O)[C@H]2c3ccccc3C(=O)N(CC(F)(F)F)[C@@H]2c2cn[nH]c2)ccc1F` (relative stereo), for which the t1/2 in data set [1] is more than 4 h.

Regarding `CC(C)CN1C(=O)c2ccccc2[C@H](C(=O)Nc2ccc(F)c(C#N)c2)[C@H]1c1ccc(C#N)s1` (racemic), the t1/2 in data set [1] came to 1.21 h.

With `CC(C)CN1C(=O)c2ccccc2[C@H](C(=O)Nc2cccc(O)c2)[C@H]1c1cccs1` (relative stereo), the Drug metabolism entry in data set [5] is given as “Metabolite_Detected”.

Regarding `CC(C)CN1C(=O)c2ccccc2[C@H](C(=O)Nc2ccc(O)c(Cl)c2)[C@H]1c1cccs1` (relative stereo), the Drug metabolism result in data set [6] is “Metabolite_Detected”.
